Data published in ChEMBL document CHEMBL5303573, “Mapping human microbiome drug metabolism by gut bacteria and their genes” (Nature, 2019).

Assays:
[1] = The drug is tested on Bifidobacterium longum subsp. Infantis strain: CCUG52486 for biotransformation. The drug concentrations were measured before and after a 12-h incubation by liquid-chromatography-coupled mass spectrometry (LC–MS); settings: 2 µM
[2] = The drug is tested on Bacteroides dorei strain: DSM17855 for biotransformation. The drug concentrations were measured before and after a 12-h incubation by liquid-chromatography-coupled mass spectrometry (LC–MS); settings: phocaeicola dorei, 2 µM
[3] = The drug is tested on Bacteroides fragilis strain: HMW610 for biotransformation. The drug concentrations were measured before and after a 12-h incubation by liquid-chromatography-coupled mass spectrometry (LC–MS); settings: 2 µM
[4] = The drug is tested on Bacteroides pectinophilus strain: ATCC43243 for biotransformation. The drug concentrations were measured before and after a 12-h incubation by liquid-chromatography-coupled mass spectrometry (LC–MS); settings: 2 µM
[5] = The drug is tested on Bacteroides vulgatus strain: ATCC8482 for biotransformation. The drug concentrations were measured before and after a 12-h incubation by liquid-chromatography-coupled mass spectrometry (LC–MS); settings: phocaeicola vulgatus, 2 µM
[6] = The drug is tested on Parabacteroides merdae strain: ATCC43184 for biotransformation. The drug concentrations were measured before and after a 12-h incubation by liquid-chromatography-coupled mass spectrometry (LC–MS); settings: 2 µM
[7] = The drug is tested on Clostridium asparagiforme strain: DSM15981 for biotransformation. The drug concentrations were measured before and after a 12-h incubation by liquid-chromatography-coupled mass spectrometry (LC–MS); type: ADME; set-up: dose 2 uM, timepoint 0 vs 12 hours; settings: enterocloster asparagiformis, 2 µM
[8] = The drug is tested on Clostridium ramosum strain: DSM1402 for biotransformation. The drug concentrations were measured before and after a 12-h incubation by liquid-chromatography-coupled mass spectrometry (LC–MS); settings: thomasclavelia ramosa, 2 µM
[9] = The drug is tested on Clostridium symbiosum strain: ATCC14940 for biotransformation. The drug concentrations were measured before and after a 12-h incubation by liquid-chromatography-coupled mass spectrometry (LC–MS); settings: 2 µM
[10] = The drug is tested on Eubacterium ventriosum strain: ATCC27560 for biotransformation. The drug concentrations were measured before and after a 12-h incubation by liquid-chromatography-coupled mass spectrometry (LC–MS); type: ADME; set-up: dose 2 uM, timepoint 0 vs 12 hours; settings: 2 µM
[11] = The drug is tested on Ruminococcus torques strain: ATCC27756 for biotransformation. The drug concentrations were measured before and after a 12-h incubation by liquid-chromatography-coupled mass spectrometry (LC–MS); type: ADME; set-up: dose 2 uM, timepoint 0 vs 12 hours; settings: 2 µM
[12] = The drug is tested on Escherichia coli strain: BW25113 for biotransformation. The drug concentrations were measured before and after a 12-h incubation by liquid-chromatography-coupled mass spectrometry (LC–MS); settings: 2 µM
[13] = bacteroides fragilis, 12 h, 2 µM
Description: The drug is tested on Bacteroides fragilis strain: DS-208 for biotransformation. The drug concentrations were measured before and after a 12-h incubation by liquid-chromatography-coupled mass spectrometry (LC–MS)

[14] = bacteroides intestinalis, 12 h, 2 µM
Description: The drug is tested on Bacteroides intestinalis strain: DSM17393 for biotransformation. The drug concentrations were measured before and after a 12-h incubation by liquid-chromatography-coupled mass spectrometry (LC–MS)

[15] = bacteroides stercoris, 12 h, 2 µM
Description: The drug is tested on Bacteroides stercoris strain: ATCC43183 for biotransformation. The drug concentrations were measured before and after a 12-h incubation by liquid-chromatography-coupled mass spectrometry (LC–MS)

[16] = anaerostipes sp., 12 h, 2 µM
Description: The drug is tested on Anaerostipes sp. strain: fecal isolate for biotransformation. The drug concentrations were measured before and after a 12-h incubation by liquid-chromatography-coupled mass spectrometry (LC–MS)

[17] = enterocloster bolteae, 12 h, 2 µM
Description: The drug is tested on Clostridium bolteae strain: ATCCBAA-613 for biotransformation. The drug concentrations were measured before and after a 12-h incubation by liquid-chromatography-coupled mass spectrometry (LC–MS)

[18] = The drug is tested on Enterobacter cancerogenus strain: ATCC35316 for biotransformation. The drug concentrations were measured before and after a 12-h incubation by liquid-chromatography-coupled mass spectrometry (LC–MS); settings: 2 µM
[19] = The drug is tested on Alistipes indistinctus strain: DSM22520 for biotransformation. The drug concentrations were measured before and after a 12-h incubation by liquid-chromatography-coupled mass spectrometry (LC–MS); settings: 2 µM

| SMILES | Bacterial Biotransformation [1] | Bacterial Biotransformation [2] | Bacterial Biotransformation [3] | Bacterial Biotransformation [4] | Bacterial Biotransformation [5] | Bacterial Biotransformation [6] | Bacterial Biotransformation [7] | Bacterial Biotransformation [8] | Bacterial Biotransformation [9] | Bacterial Biotransformation [10] | Bacterial Biotransformation [11] | Bacterial Biotransformation [12] | Bacterial Biotransformation [13] | Bacterial Biotransformation [14] | Bacterial Biotransformation [15] | Bacterial Biotransformation [16] | Bacterial Biotransformation [17] | Bacterial Biotransformation [18] | Bacterial Biotransformation [19] |
| --- | --- | --- | --- | --- | --- | --- | --- | --- | --- | --- | --- | --- | --- | --- | --- | --- | --- | --- | --- |
| CS(=O)(=O)O.OC(CCN1CCCCC1)(c1ccccc1)c1ccccc1 [PRIDINOL METHANESULFONATE] | Compound NOT metabolized | Compound NOT metabolized | Compound NOT metabolized | Compound NOT metabolized | Compound NOT metabolized | Compound NOT metabolized | Compound NOT metabolized | Compound NOT metabolized | Compound NOT metabolized | Compound NOT metabolized | Compound NOT metabolized | Compound NOT metabolized | Compound NOT metabolized | Compound NOT metabolized | Compound NOT metabolized | Compound NOT metabolized | Compound NOT metabolized |  |  |
| CC(C)OC(=O)C(C)(C)Oc1ccc(C(=O)c2ccc(Cl)cc2)cc1 [FENOFIBRATE] | Compound NOT metabolized |  | Compound NOT metabolized | Compound metabolized |  |  | Compound metabolized | Compound NOT metabolized | Compound NOT metabolized |  |  |  | Compound NOT metabolized | Compound NOT metabolized | Compound NOT metabolized | Compound metabolized | Compound NOT metabolized | Compound NOT metabolized |  |
| N#Cc1ccc2c(c1)N(CCCN1CCC(O)CC1)c1ccccc1S2 [PERICIAZINE] | Compound NOT metabolized | Compound metabolized | Compound metabolized | Compound NOT metabolized | Compound metabolized |  | Compound NOT metabolized |  | Compound NOT metabolized | Compound NOT metabolized | Compound NOT metabolized | Compound NOT metabolized |  | Compound NOT metabolized | Compound NOT metabolized | Compound NOT metabolized | Compound NOT metabolized |  | Compound metabolized |
| CN1CC(=O)N2[C@H](c3ccc4c(c3)OCO4)c3[nH]c4ccccc4c3C[C@@H]2C1=O |  |  | Compound metabolized | Compound NOT metabolized |  | Compound NOT metabolized | Compound NOT metabolized | Compound NOT metabolized | Compound NOT metabolized | Compound NOT metabolized | Compound NOT metabolized |  |  | Compound NOT metabolized | Compound NOT metabolized | Compound NOT metabolized | Compound NOT metabolized |  | Compound NOT metabolized |
| CCN(CC)CCCC(C)Nc1c2ccc(Cl)cc2nc2ccc(OC)cc12 (stereo not drawn) [QUINACRINE] | Compound NOT metabolized | Compound NOT metabolized |  | Compound NOT metabolized | Compound NOT metabolized | Compound NOT metabolized | Compound NOT metabolized | Compound NOT metabolized |  | Compound NOT metabolized | Compound NOT metabolized | Compound NOT metabolized | Compound NOT metabolized | Compound NOT metabolized | Compound NOT metabolized | Compound NOT metabolized | Compound NOT metabolized | Compound NOT metabolized |  |
